Some test systems named below: 786-0 renal; HT29 colon; MDA-N; NCI-H23 lung; OVCAR-5 ovarian; PC-3 prostate; SNB-75 CNS; SR leukemia; T-47D breast; UO-31 renal; SN12C renal.
Common to all, as to assay: NCI anticancer screen, dose series, 48 h

Values joined by “and” are separate entries in the source; they are usually repeats but may differ in a detail not shown here. Equal values may be shown once.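 Five concentrations, 48 hours, 96-well plates. At the GI50, growth is halved. Definition used: TGI = concentration required for complete inhibition of growth.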 Where a SMILES comes first, the peptide text is derived from it. The star is where a group is joined. Boc = CC(C)(C)OC(=O)*; OBn = c1ccc(CO*)cc1 Bounds are passed on as bounds.

On to `OCC(CCc1ccccc1I)C1=CCC2(CC1)OCCO2` (centres undefined), for which the TGI stood at 42.5 µM with 786-0 renal; 41.6 µM with HT29 colon; 36.5 µM in the test on MDA-N; 48.9 µM in the test on NCI-H23 lung; 34.1 µM in the test with OVCAR-5 ovarian; 52.5 µM in the test with PC-3 prostate. The TGI in the test with SNB-75 CNS was 52 µM; in the test with SR leukemia it was greater than 100 µM; in the test on T-47D breast it was 42.3 µM; in the test with UO-31 renal it was 41.1 µM.
As for `CC1(C)C(CCO)CC1n1ccc(=O)[nH]c1=O` (centres undefined), the TGI in the test with 786-0 renal, in the test on MDA-N, with OVCAR-5 ovarian, in the test with PC-3 prostate, with SN12C renal and with SNB-75 CNS was greater than 100 µM throughout. Also, the TGI in the test on T-47D breast and in the test on UO-31 renal was greater than 100 µM throughout.
Take `CC(=O)NC1=C(NCCCl)C(=O)c2ccccc2C1=O`: the TGI was greater than 100 µM in the test with 786-0 renal; 75.1 µM in the test with HT29 colon; 38.3 µM in the test with MDA-N; 80.1 µM in the test with NCI-H23 lung; greater than 100 µM in the test on OVCAR-5 ovarian; 96.2 µM with PC-3 prostate. For the same compound, the TGI in the test with SN12C renal was greater than 100 µM; in the test on SNB-75 CNS, greater than 100 µM; in the test on SR leukemia it was greater than 100 µM; in the test with T-47D breast it was 84.1 µM.
Turning to `O=C1C=C2CCC[C@H]3OC(=O)C[C@@]23CC1`, the TGI with 786-0 renal, with HT29 colon, with MDA-N, in the test on NCI-H23 lung, with OVCAR-5 ovarian and in the test with PC-3 prostate was greater than 100 µM throughout. Moreover, the TGI with SN12C renal, in the test with SR leukemia and in the test on T-47D breast was greater than 100 µM in each case.
`Cc1ccnc2nc(N)ccc12`: the TGI in the test with 786-0 renal, with HT29 colon, with MDA-N, in the test with NCI-H23 lung, in the test on OVCAR-5 ovarian and with PC-3 prostate was greater than 100 µM in each case. Also, the TGI in the test with SN12C renal, with SNB-75 CNS, in the test on SR leukemia, in the test on T-47D breast and in the test with UO-31 renal was greater than 100 µM in each case.
As for `COC(=O)c1c(CC(Cc2ccc3c(c2)CCCC3)C(=O)OC)ccc2c1CCCC2` (centres undefined), the TGI with 786-0 renal, in the test on HT29 colon, with MDA-N, with NCI-H23 lung, with OVCAR-5 ovarian and in the test on PC-3 prostate was greater than 100 µM each time. Further, the TGI is greater than 100 µM in the test with SN12C renal, 86.7 µM in the test with SR leukemia, greater than 100 µM in the test with T-47D breast and greater than 100 µM in the test with UO-31 renal.
Consider `O=C1CC(C(OCc2ccccc2)C(OCc2ccccc2)C(COCc2ccccc2)OCc2ccccc2)CC(=O)N1` (centres undefined), for which the TGI with 786-0 renal is greater than 100 µM; in the test with HT29 colon, greater than 75 µM; in the test with MDA-N, greater than 100 µM; in the test on NCI-H23 lung it was greater than 100 µM; with OVCAR-5 ovarian, greater than 100 µM; with PC-3 prostate, greater than 100 µM. For the same compound, the TGI with SN12C renal was greater than 100 µM; in the test on SNB-75 CNS, greater than 100 µM; with SR leukemia, greater than 100 µM; in the test on T-47D breast, 65.6 µM; in the test on UO-31 renal, greater than 100 µM. For the same compound, the GI50 with SNB-75 CNS was 29.7 µM and > 75 µM; with UO-31 renal, > 100 µM and 45.7 µM.
For the compound `Cc1cccc2nc3c(=O)[nH]c(=O)nc-3n(C)c12`, the TGI in the test with 786-0 renal, in the test with HT29 colon, in the test with MDA-N, in the test on NCI-H23 lung, in the test on OVCAR-5 ovarian and with PC-3 prostate was greater than 100 µM each time. In addition, the TGI with SN12C renal, with SNB-75 CNS and in the test with T-47D breast was greater than 100 µM throughout.
With `NC(=O)c1cc(N(CCO)CCO)c([N+](=O)[O-])cc1[N+](=O)[O-]`, the TGI in the test on 786-0 renal, in the test on HT29 colon, in the test on MDA-N, in the test on NCI-H23 lung, in the test with OVCAR-5 ovarian and in the test on PC-3 prostate was greater than 100 µM each time. Also, the TGI in the test on SN12C renal, in the test with SR leukemia, in the test on T-47D breast and in the test with UO-31 renal was greater than 100 µM in each case.
For `CC(C)CC(NC(=O)OC(C)(C)C)C(=O)NC(CC(=O)OCc1ccccc1)C(=O)OCc1ccccc1` (stereo not drawn) (Boc-Leu-Asp(OBn)-OBn; configuration not given here), the TGI in the test on 786-0 renal is 49.6 µM; in the test on HT29 colon, greater than 100 µM; in the test with MDA-N, greater than 100 µM; in the test on NCI-H23 lung it was greater than 100 µM; in the test with OVCAR-5 ovarian it was greater than 100 µM; with PC-3 prostate it was 84.8 µM. For the same compound, the TGI is 50.9 µM with SN12C renal; greater than 100 µM with SNB-75 CNS; 63.8 µM in the test with SR leukemia; greater than 100 µM with T-47D breast; 75 µM in the test on UO-31 renal.
With `CN(C(=O)c1ccc2c(c1)sc1c(=O)n(C)c3ccccc3c12)c1ccccc1`, the TGI in the test with 786-0 renal, with HT29 colon, in the test on MDA-N, in the test with NCI-H23 lung, in the test with OVCAR-5 ovarian and in the test with PC-3 prostate was greater than 100 µM each time. Besides, the TGI in the test with SN12C renal, in the test with SNB-75 CNS, with SR leukemia, in the test with T-47D breast and in the test on UO-31 renal was greater than 100 µM in each case.
As for `CC(=O)OC1C2CCC3C(C)(O)C4CC(O)C(C)(C)C4(O)C(O)CC13CC2(C)O` (centres undefined), the TGI in the test with 786-0 renal, with HT29 colon, in the test on MDA-N, in the test on NCI-H23 lung, with OVCAR-5 ovarian and in the test on PC-3 prostate was greater than 100 µM throughout. Also, the TGI in the test on SN12C renal, in the test with SNB-75 CNS, in the test with SR leukemia, in the test on T-47D breast and in the test on UO-31 renal was greater than 100 µM each time.
Consider `CCOC(=O)NNC(=O)NCc1ccccc1CNC(=O)NNC(=O)OCC`, for which the TGI in the test with 786-0 renal, in the test with HT29 colon, in the test on MDA-N, in the test with NCI-H23 lung, with OVCAR-5 ovarian and in the test on PC-3 prostate was greater than 100 µM throughout. Further, the TGI in the test with SN12C renal, in the test on SNB-75 CNS, in the test on SR leukemia, with T-47D breast and in the test on UO-31 renal was greater than 100 µM throughout.

For the origin of these results see PubChem BioAssay (NCI).
